From US20260055113A1, “HETEROARYL COMPOUNDS FOR THE TREATMENT OF CANCER” (Hoffmann-La Roche Inc., priority 2022, published 2026) come the findings set out here.

For data set [1], the target named is T1, CD73 (Homo sapiens (Human), UniProt P21589). Kind of data set: CD73 potency assay using LC/MS (enzymatic). In kind it is biochemical. The settings on record: 0.05 nM recombinant CD73 protein, LC/MS adenosine readout; read-out: Enzymatic IC50 against CD73. As to the method:
The purpose of this assay is to identify and characterize inhibitors of CD73 enzymatic activity. […] 10 μL of enzyme working solution (containing 0.05 nM recombinant CD73 protein, 10 mM Tris pH 7.5, 100 mM NaCl, 0.01% BSA, 0.2 mM Octyl glucoside) was added to the assay plate and incubated with compounds for 15 minutes at room temperature. After adding 15 μL of AMP working solution (Containing 10 mM Tris pH 7.5, 100 mM NaCl, 0.01% BSA, 0.2 mM Octyl glucoside, with 1000 μM of AMP final concentration) and incubate for 10 min at room temperature. […] After centrifugation, 75 μL of the mixture was transferred to a new 384-well plate for LC/MS analysis.
Samples from the 384-well plates, were loaded onto an autosampler deck, then injected with ADDA-LC-MS/MS. The aqueous mobile phase is 0.1% formic acid in water. The organic mobile phase is 0.1% formic acid in acetonitrile. Flow rate is maintained at 0.8 mL/minute using Shimadzu pumps. The column is ACE 5 Phenyl, 50×2.1 mm. The analysis was performed on a SCIEX triple quadrupole mass spectrometer operating in positive ion mode. The effluent from the HPLC column was directly introduced into the electrospray ionization (ESI). Multiple reaction monitoring (MRM) is used to determine analyte and internal standard (IS) responses. […] The data is calculated using the peak area ratio (PAR) semi-quantitative method.
Target sequence in this assay (P21589 27-574, species assumed): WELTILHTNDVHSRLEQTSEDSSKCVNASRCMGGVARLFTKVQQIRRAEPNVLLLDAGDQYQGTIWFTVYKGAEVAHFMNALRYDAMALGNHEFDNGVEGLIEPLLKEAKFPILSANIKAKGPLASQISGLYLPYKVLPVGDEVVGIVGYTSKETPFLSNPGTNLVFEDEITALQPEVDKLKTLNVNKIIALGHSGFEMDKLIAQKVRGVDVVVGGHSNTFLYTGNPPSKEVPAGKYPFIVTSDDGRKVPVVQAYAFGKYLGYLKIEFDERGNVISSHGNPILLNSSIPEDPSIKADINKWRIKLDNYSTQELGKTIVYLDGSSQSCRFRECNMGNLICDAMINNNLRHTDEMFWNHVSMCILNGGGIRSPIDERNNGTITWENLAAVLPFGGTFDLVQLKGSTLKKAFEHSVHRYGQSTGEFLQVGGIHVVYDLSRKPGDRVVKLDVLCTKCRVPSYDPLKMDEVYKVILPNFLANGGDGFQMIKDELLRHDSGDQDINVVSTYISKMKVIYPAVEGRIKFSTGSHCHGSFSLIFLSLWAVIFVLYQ

In a further data set the test system is CD8+ T cells. Kind of data set: T cell proliferation assay, CD8+ T cells. Conditions: read-out: CD8+ T cell proliferation EC50; rescue of proliferation under high AMP condition (200 μM AMP), 72 hours.
The nature of data set [2]: Human microsomal stability assay. Format: in vitro ADME. The settings on record: human liver microsomes 0.5 mg/mL, 1 μM test compound, 37° C., pH 7.4. Here is the method:
Human liver microsomes (Cat. NO.: 452117, Corning, USA) were preincubated with test compound for 10 minutes at 37° C. in 100 mM potassium phosphate buffer, pH 7.4. The reactions were initiated by adding NADPH regenerating system. The final incubation mixtures contained 1 μM test compound, 0.5 mg/mL liver microsomal protein, 1 mM MgCl2, 1 mM NADP, 1 unit/mL isocitric dehydrogenase and 6 mM isocitric acid in 100 mM potassium phosphate buffer, pH 7.4. After incubation times of 0, 3, 6, 9, 15 and 30 minutes at 37° C., 300 μL of cold ACN (including internal standard) was added to 100 μL incubation mixture to terminate the reaction. Following precipitation and centrifugation, 100 μL supernatant will be taken out and added 300 μL water. The amount of compound remaining in the samples was determined by LC-MS/MS. Controls of no NADPH regenerating system at zero and 30 minutes were also prepared and analyzed. The results were categorized as: low (<7.0 mL/min/kg), medium (7.0-16.2 mL/min/kg) and high (16.2-23.2 mL/min/kg).

A further data set deals with CD4+ T cells. Kind of data set: T cell proliferation assay, CD4+ T cells. The settings on record: read-out: CD4+ T cell proliferation EC50; rescue of proliferation under high AMP condition (200 μM AMP), 72 hours.
Data set [3] has as its target T1, CD73. Kind of data set: CD73 cellular assay (MDA-MB-231 cells, malachite readout). Format: cell-based. Conditions: AMP substrate, 45 min, read-out: Cellular IC50 against CD73. Here is the method: After incubating with compounds for 30 minutes, 40 μL of AMP working solution (200 μM AMP in assay buffer) was added into each well in the assay plate. The assay plate was then incubated in a 5% CO2 incubator (Thermo Fisher Scientific) at 37° C. for 45 min. After the reaction was completed, 50 μL of the supernatants was collected and transferred into a new 384 well plate. 10 μL of Malachite A was added to each well in the assay plate and incubated for 10 minutes. 10 μL of Malachite B was then added to each corresponding well of the plate and incubated for 30 minutes.
Target sequence in this assay (P21589 27-574): as the sequence (P21589 27-574, species assumed) above

Experimental for CD4+ T cells: (§1) The purpose of this assay is to characterize the potency of inhibitors of CD73 in rescuing adenosine-mediated inhibition of T cell proliferation. CD4+ or CD8+ T cells were isolated from peripheral blood mononuclear cells (PBMCs, HemaCare) by immunomagnetic negative selection using EasySep™ Isolation Kit ([sequence] Technologies) following the supplier's protocol. CD4+ or CD8+ T cells were pelleted by centrifugation at 300 gravitational force (g) for 5 minutes at room temperature and re-suspended in PBS. CellTrace™ Violet staining solution (Invitrogen) was added at 1:5,000 and incubated at 37° C. for 20 minutes, protected from light. […] Cells were then pelleted by centrifugation at 300 g for 5 minutes at room temperature and re-suspended in fresh, pre-warmed complete culture medium. 50 μL of cells were seeded per well in 96 well u-bottom plates. 50 μL of CD3/CD28 beads-containing medium and 50 μL of media containing compounds were added into cells. 50 μL of media containing AMP and EHNA hydrochloride (Sigma-Aldrich) was added into cells at 200 μM and 5 μM final concentration, respectively. Cells were incubated for 72 hours at 37° C. in a 5% CO2 incubator. 200 μL of PBS was then added to each well and cells were centrifuged at 300 g, 4° C. for 10 minutes. […] The supernatant was discarded and cells were re-suspended in 60 μL of cell staining buffer and analyzed on a flow cytometer.
Experimental for CD8+ T cells: as §1

Take `C[C@H](Oc1nn(C)c2nnc(-c3c[nH]c(=O)[nH]c3=O)cc12)c1ccccn1` [Example 26, 5-[1-methyl-3-[(1S)-1-(2-pyridyl)ethoxy]pyrazolo[3,4-c]pyridazin-5-yl]-1H-pyrimidine-2,4-dione]: the IC50 (in general, the concentration that gives 50% inhibition) at CD73 [1] turned out to be 0.33 nM; at CD73 [3], 2.7 nM. Besides, the results for the EC50 in the data set on CD8+ T cells and in the data set on CD4+ T cells were 3.9 nM and 5.6 nM, respectively. Further, the “CL (h)” value in data set [2] came to 6.15 mL/min/kg.

For `C[C@H](Oc1nn(C)c2nnc(-c3c[nH]c(=O)[nH]c3=O)cc12)c1ccccc1` [Example 27, 5-[1-methyl-3-[(1S)-1-phenylethoxy]pyrazolo[3,4-c]pyridazin-5-yl]-1H-pyrimidine-2,4-dione], the EC50 in the data set on CD8+ T cells is 3.84 nM; with CD4+ T cells it was 4.3 nM. Also, in data set [2], the “CL (h)” value is recorded as 6.15 mL/min/kg.
